How the values were obtained:
MHCC97H [1] = assay: Antiproliferative activity against human MHCC97H cells incubated for 24 hrs by CCK8 assay; type: functional, cell-based
[2] = biological target: Hepatocyte growth factor receptor (Homo sapiens, UniProt P08581); assay: Induction of c-Met degradation in human MHCC97H cells at 1 uM incubated for 24 hrs by Western blotting analysis; type: cell-based
[3] = Toxicity in BALB/c mouse xenografted with human MHCC97H cells assessed as liver lesions at 20 mg/kg, po qd for 22 days and measured every 2 days by H and E staining based assay; type: organism-based; conditions: in vivo, 528 h, time 22 day
MHCC97H [4] = assay: Induction of apoptosis in human MHCC97H cells assessed as late apoptotic cells at 3 nM incubated for 24 hrs by Annexin-V-FITC/PI staining based flow cytometry analysis (reference value: 4.24%); type: functional
[5] = Toxicity in BALB/c mouse xenografted with human MHCC97H cells assessed as reduction in body weight at 20 mg/kg, po qd for 22 days and measured every 2 days; type: organism-based; conditions: in vivo, 528 h, time 22 day
MHCC97H [6] = assay: Antitumor activity against human MHCC97H cells xenografted in BALB/c mouse assessed as tumor growth inhibition at 20 mg/kg, po qd for 22 days and measured every 2 days; type: functional; conditions: 528 h, time 22 day, read-out: TGI
MHCC97H [7] = assay: Induction of apoptosis in human MHCC97H cells assessed as necrotic cells at 3 nM incubated for 24 hrs by Annexin-V-FITC/PI staining based flow cytometry analysis (reference value: 1.77%); type: functional
BaF3 [8] = assay: Antiproliferative activity against mouse BaF3 cells harboring TPR-MET D1228N mutant fusion protein incubated for 72 hrs by CellTiter-Glo reagent based assay; type: functional, cell-based; conditions: BaF3, 72 h
MHCC97H [9] = assay: Induction of apoptosis in human MHCC97H cells assessed as early apoptotic cells at 3 nM incubated for 24 hrs by Annexin-V-FITC/PI staining based flow cytometry analysis (reference value: 7.70%); type: functional
MHCC97H [10] = assay: Induction of cell cycle arrest in human MHCC97H cells assessed as accumulation of cells at G1 phase at 3 nM incubated for 24 hrs by PI staining based flow cytometry analysis (reference value: 70.4%); type: functional
[11] = Toxicity in BALB/c mouse xenografted with human MHCC97H cells assessed as kidney lesions at 20 mg/kg, po qd for 22 days and measured every 2 days by H and E staining based assay; type: organism-based; conditions: in vivo, 528 h, time 22 day
MHCC97H [12] = assay: Induction of apoptosis in human MHCC97H cells assessed as viable cells at 3 nM incubated for 24 hrs by Annexin-V-FITC/PI staining based flow cytometry analysis (reference value: 86.3%); type: functional; conditions: read-out: Activity
MHCC97H [13] = assay: Induction of cell cycle arrest in human MHCC97H cells assessed as accumulation of cells at G2 phase at 3 nM incubated for 24 hrs by PI staining based flow cytometry analysis (reference value: 19.1%); type: functional
[14] = Toxicity in BALB/c mouse xenografted with human MHCC97H cells assessed as heart lesions at 20 mg/kg, po qd for 22 days and measured every 2 days by H and E staining based assay; type: organism-based; conditions: in vivo, 528 h, time 22 day
[15] = Toxicity in BALB/c mouse xenografted with human MHCC97H cells assessed as spleen lesions at 20 mg/kg, po qd for 22 days and measured every 2 days by H and E staining based assay; type: organism-based; conditions: in vivo, 528 h, time 22 day
BaF3 [16] = assay: Antiproliferative activity against mouse BaF3 cells harboring TPR-MET fusion protein incubated for 72 hrs by CellTiter-Glo reagent based assay; type: functional, cell-based; conditions: BaF3, 72 h
[17] = Toxicity in BALB/c mouse xenografted with human MHCC97H cells assessed as lung lesions at 20 mg/kg, po qd for 22 days and measured every 2 days by H and E staining based assay; type: organism-based; conditions: in vivo, 528 h, time 22 day
BaF3 [18] = assay: Antiproliferative activity against mouse BaF3 cells harboring TPR-MET Y1230H mutant fusion protein incubated for 72 hrs by CellTiter-Glo reagent based assay; type: functional, cell-based; conditions: BaF3, 72 h

Sequence of Hepatocyte growth factor receptor (P08581 whole entry): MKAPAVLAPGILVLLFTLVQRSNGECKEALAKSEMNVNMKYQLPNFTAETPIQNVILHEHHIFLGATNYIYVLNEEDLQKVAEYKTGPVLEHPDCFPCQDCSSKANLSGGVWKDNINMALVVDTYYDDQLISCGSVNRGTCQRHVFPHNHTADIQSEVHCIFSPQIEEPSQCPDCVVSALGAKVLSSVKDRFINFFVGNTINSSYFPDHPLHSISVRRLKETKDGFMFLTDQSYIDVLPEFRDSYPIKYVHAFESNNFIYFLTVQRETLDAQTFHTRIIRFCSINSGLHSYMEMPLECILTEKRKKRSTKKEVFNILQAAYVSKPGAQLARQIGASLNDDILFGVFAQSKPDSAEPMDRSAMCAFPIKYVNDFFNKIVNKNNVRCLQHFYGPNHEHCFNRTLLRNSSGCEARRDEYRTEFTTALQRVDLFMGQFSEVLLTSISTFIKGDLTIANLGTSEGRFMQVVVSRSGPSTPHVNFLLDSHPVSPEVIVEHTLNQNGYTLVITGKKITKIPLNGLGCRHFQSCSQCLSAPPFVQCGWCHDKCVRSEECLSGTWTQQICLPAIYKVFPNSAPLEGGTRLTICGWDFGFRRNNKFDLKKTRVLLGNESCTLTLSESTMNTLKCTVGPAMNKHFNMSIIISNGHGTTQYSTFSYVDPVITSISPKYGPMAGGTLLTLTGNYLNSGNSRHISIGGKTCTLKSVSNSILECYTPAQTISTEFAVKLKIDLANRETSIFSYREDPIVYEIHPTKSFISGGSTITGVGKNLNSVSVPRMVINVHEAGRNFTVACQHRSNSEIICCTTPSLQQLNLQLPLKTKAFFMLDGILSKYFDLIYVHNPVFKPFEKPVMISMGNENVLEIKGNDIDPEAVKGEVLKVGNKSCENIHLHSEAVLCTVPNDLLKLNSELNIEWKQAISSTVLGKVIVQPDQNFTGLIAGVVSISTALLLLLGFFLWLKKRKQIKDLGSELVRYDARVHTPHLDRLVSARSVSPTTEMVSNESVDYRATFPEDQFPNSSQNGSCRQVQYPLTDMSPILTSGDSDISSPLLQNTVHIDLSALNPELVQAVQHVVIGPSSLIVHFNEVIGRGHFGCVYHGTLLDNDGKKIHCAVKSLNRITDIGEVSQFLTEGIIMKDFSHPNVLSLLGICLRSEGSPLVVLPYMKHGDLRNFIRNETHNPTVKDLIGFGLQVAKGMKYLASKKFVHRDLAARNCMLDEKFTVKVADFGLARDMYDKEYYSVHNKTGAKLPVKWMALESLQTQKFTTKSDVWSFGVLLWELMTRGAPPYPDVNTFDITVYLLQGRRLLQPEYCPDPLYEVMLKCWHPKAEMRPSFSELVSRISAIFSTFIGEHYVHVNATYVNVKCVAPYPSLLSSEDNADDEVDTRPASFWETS

Activity [2] [%] | Compound | IC50 (MHCC97H [1]) [nM] | also measured
< 10 | N#Cc1cccc(-c2ccc(=O)n(Cc3cccc(-c4ncc(OCC5CCN(CC(=O)NCCCCCCCCNC(=O)CC67CC8CC(CC(C8)C6)C7)CC5)cn4)c3)n2)c1 | 156 | 
22.4 | N#Cc1cccc(-c2ccc(=O)n(Cc3cccc(-c4ncc(OCC5CCN(CC(=O)NCCNC(=O)CC67CC8CC(CC(C8)C6)C7)CC5)cn4)c3)n2)c1 | 40.2 | 
< 10 | N#Cc1cccc(-c2ccc(=O)n(Cc3cccc(-c4ncc(OCC5CCN(CC(=O)NCCCCCCCCCCNC(=O)CC67CC8CC(CC(C8)C6)C7)CC5)cn4)c3)n2)c1 | 155 | 
< 10 | N#Cc1cccc(-c2ccc(=O)n(Cc3cccc(-c4ncc(OCC5CCN(CC(=O)NCCCCCCNC(=O)CC67CC8CC(CC(C8)C6)C7)CC5)cn4)c3)n2)c1 | 200 | 
< 10 | N#Cc1cccc(-c2ccc(=O)n(Cc3cccc(-c4ncc(OCC5CCN(CC(=O)NCCCCNC(=O)CC67CC8CC(CC(C8)C6)C7)CC5)cn4)c3)n2)c1 | 139 | 
11.1 | N#Cc1cccc(-c2ccc(=O)n(Cc3cccc(-c4ncc(OCC5CCN(CCNC(=O)CC67CC8CC(CC(C8)C6)C7)CC5)cn4)c3)n2)c1 | 22.9 | 
40.5 | N#Cc1cccc(-c2ccc(=O)n(Cc3cccc(-c4ncc(OCC5CCN(CCCC(=O)NCC67CC8CC(CC(C8)C6)C7)CC5)cn4)c3)n2)c1 | 11.8 | 

The remaining lines, values behind:

Compound | Activity [2] [%] | IC50 (MHCC97H [1]) [nM] | also measured
N#Cc1cccc(-c2ccc(=O)n(Cc3cccc(-c4ncc(OCC5CCN(C(=O)CC(c6ccccc6)c6ccccc6)CC5)cn4)c3)n2)c1 | < 10 | 128 | 
N#Cc1cccc(-c2ccc(=O)n(Cc3cccc(-c4ncc(OCC5CCN(C(=O)CC6c7ccccc7-c7ccccc76)CC5)cn4)c3)n2)c1 | 15.8 | 935 | 
CN1CCC(COc2cnc(-c3cccc(Cn4nc(-c5cccc(C#N)c5)ccc4=O)c3)nc2)CC1 [TEPOTINIB] |  | 3.66 | Activity [3]: Non-Toxic; Activity (MHCC97H [4]): 3.84%; Activity [5]: Non-Toxic; inhibition in vivo at 20 mg/kg (MHCC97H [6]): 58.8%; Activity (MHCC97H [7]): 2.57%; IC50 (BaF3 [8]): 2030 nM; Activity (MHCC97H [9]): 13.9%; Activity (MHCC97H [10]): 73.7%; Activity [11]: Non-Toxic; viability at 0.003 µM (MHCC97H [12]): 79.6%; Activity (MHCC97H [13]): 16.6%; Activity [14]: Non-Toxic; Activity [15]: Non-Toxic; IC50 (BaF3 [16]): 5.3 nM; Activity [17]: Non-Toxic; IC50 (BaF3 [18]): 1840 nM
CC(C)[C@@H]1CC[C@@H](C)C[C@H]1OCC(=O)N1CCC(COc2cnc(-c3cccc(Cn4nc(-c5cccc(C#N)c5)ccc4=O)c3)nc2)CC1 | 35.8 | 258 | 
N#Cc1cccc(-c2ccc(=O)n(Cc3cccc(-c4ncc(OCC5CCN(C(=O)CC67CC8CC(CC(C8)C6)C7)CC5)cn4)c3)n2)c1 | 67.4 | 67.2 | 
N#Cc1cccc(-c2ccc(=O)n(Cc3cccc(-c4ncc(OCC5CCN(CC(=O)NCC6CC7C=CC6C7)CC5)cn4)c3)n2)c1 (stereo unspecified) | 50.2 | 73.6 | 

— ChEMBL document CHEMBL5523740, “Discovery of Potent and Selective c-Met Degraders for Hepatocellular Carcinoma Treatment” (J Med Chem, 2024)
